Measured values published in patent US20040062739A1, “Use of carbohydrates to improve skin barrier function” (SOCIETE L'OREAL S.A., priority 2000, published 2004).

Tests used:
[1] = test system: GLY-03; set-up: key: −: no activity; ε, +, ++: specific activity; ε, +, ++: specific activity; ε, +, ++: specific activity; details: glycosidase sold by Clonezyme; cited from earlier work
[2] = test system: GLY-07; set-up: key: −: no activity; ε, +, ++: specific activity; ε, +, ++: specific activity; ε, +, ++: specific activity; details: glycosidase sold by Clonezyme; cited from earlier work
[3] = test system: GLY-04; set-up: key: −: no activity; ε, +, ++: specific activity; ε, +, ++: specific activity; ε, +, ++: specific activity; details: glycosidase sold by Clonezyme; cited from earlier work
[4] = test system: GLY-02; set-up: key: −: no activity; ε, +, ++: specific activity; ε, +, ++: specific activity; ε, +, ++: specific activity; details: glycosidase sold by Clonezyme; cited from earlier work
[5] = test system: GLY-01; set-up: key: −: no activity; ε, +, ++: specific activity; ε, +, ++: specific activity; ε, +, ++: specific activity; details: glycosidase sold by Clonezyme; cited from earlier work
[6] = test system: GLY-08; set-up: key: −: no activity; ε, +, ++: specific activity; ε, +, ++: specific activity; ε, +, ++: specific activity; details: glycosidase sold by Clonezyme; cited from earlier work
[7] = test system: GLY-06; set-up: key: −: no activity; ε, +, ++: specific activity; ε, +, ++: specific activity; ε, +, ++: specific activity; details: glycosidase sold by Clonezyme; cited from earlier work
[8] = test system: GLY-09; set-up: key: −: no activity; ε, +, ++: specific activity; ε, +, ++: specific activity; ε, +, ++: specific activity; details: glycosidase sold by Clonezyme; cited from earlier work
[9] = test system: GLY-10; set-up: key: −: no activity; ε, +, ++: specific activity; ε, +, ++: specific activity; ε, +, ++: specific activity; details: glycosidase sold by Clonezyme; cited from earlier work
[10] = test system: GLY-05; set-up: key: −: no activity; ε, +, ++: specific activity; ε, +, ++: specific activity; ε, +, ++: specific activity; details: glycosidase sold by Clonezyme; cited from earlier work
[11] = test system: β-D-glucosidase in the stratum corneum; experiment: enzymatic test of stratum corneum glycosidases with PNP chromogenic substrate: β-glucosidase; format: biochemical; details: different concentrations, FIG. 2
Protocol: In order to determine the nature and importance of the barrier effect of a carbohydrate derivative in accordance with the invention, the influence of O-octanoyl-6′-maltose on glycosidase activity was studied using the following enzymatic test: The assay was carried out in a 96 well plate. A mixture comprising the following was produced: 75μl of a 10 mM solution of specific chromogenic substrate coupled to paranitrophenol (PNP); 10 μl of 700 mM citrate buffer/200 mM sodium phosphate, pH 4.5; 55 μl of a 0.5 M solution of O-octanoyl-6′-maltose [α-D-glucopyannosyl-1-4-D-glucopyranose]; 40 μl of a solution of soluble glycosidases from the stratum corneum. This solution was obtained simply by scratching the forearm into a 70 mM sodium citrate buffer, pH 4.5 containing 1% of Tween 20 and eliminating cell debris by sequential filtering through a membrane with a pore size of 0.45 and of 0.22 μm. The measurements were carried out by quantifying the yellow coloration after incubation at 37° C. for a period in the range 1h30 and 48 hours.

Row | Structure (SMILES) | substrate specificity GLY-03 [1] | substrate specificity GLY-07 [2] | substrate specificity GLY-04 [3] | substrate specificity GLY-02 [4] | substrate specificity GLY-01 [5] | substrate specificity GLY-08 [6] | substrate specificity GLY-06 [7] | substrate specificity GLY-09 [8] | substrate specificity GLY-10 [9] | substrate specificity GLY-05 [10] | stimulation of β-D-glucosidase activity [11]
1 | OC[C@H]1O[C@H](O[C@H]2[C@H](O)[C@@H](O)[C@H](O)O[C@@H]2CO)[C@H](O)[C@@H](O)[C@@H]1O [β-D-cellobiose] | ε | + | ε | ++ | − | ε | + | ε | − |  | 
2 | C[C@@H]1O[C@@H](O)[C@@H](O)[C@H](O)[C@@H]1O [α-L-fucose] | − | − | − | − | − | − | − | − | − | − | 
3 | CC(=O)NC1C(Oc2ccc([N+](=O)[O-])cc2)OC(CO)C(O)C1O [β-N-acetyl-D-glucosaminide] | − | − | − | − | − | − | − | − | − | − | 
4 | C[C@@H]1O[C@H](O)[C@@H](O)[C@H](O)[C@@H]1O [β-L-fucose] | − | − | − | − | − | − | − | − | − | − | 
5 | CC(=O)NC1C(OC2C(CO)OC(Oc3ccc([N+](=O)[O-])cc3)C(NC(C)=O)C2O)OC(CO)C(O)C1O [β-D-N-acetylch obloside] | − | − | − | − | − | − | − | − | − | − | 
6 | CCCCCCCC(=O)OCC1OC(O)C(O)C(O)C1O [O-octanoyl-6-D-glucose] |  |  |  |  |  |  |  |  |  |  | a certain stimulation of activity, albeit small
7 | OC[C@H]1O[C@@H](O)[C@@H](O)[C@@H](O)[C@@H]1O [β-D-mannose] | − | + | − | ε | − | − | + | + | − | − | 
8 | C[C@H]1O[C@@H](O)[C@H](O)[C@@H](O)[C@H]1O [β-D-fucose] | ++ | ++ | ++ | ++ | − | + | ++ | ++ | − | ++ | 
9 | O=C(O)[C@H]1O[C@@H](Oc2ccc([N+](=O)[O-])cc2)[C@H](O)[C@@H](O)[C@@H]1O [β-D-glucuronide] | − | ε | − | − | − | − | − | − | − | − | 
10 | OC[C@H]1O[C@@H](O)[C@H](O)[C@@H](O)[C@H]1O [β-D-galactose] | ε | ε | + | ++ | − | + | ε | − | − | + | 
11 | OC[C@H]1O[C@@H](O)[C@H](O)[C@@H](O)[C@@H]1O [β-D-glucose] | − | − | − | − | − | − | − | − | − | − | 
12 | C[C@@H]1O[C@@H](O)[C@H](O)[C@H](O)[C@H]1O [α-L-rhamnose] | − | − | − | − | − | − | − | − | − | − | 
13 | OC[C@H]1O[C@H](O)[C@@H](O)[C@@H](O)[C@@H]1O [α-D-mannose] | − | − | − | − | − | − | − | − | − | − | 
14 | OC[C@H]1O[C@@H](O[C@H]2[C@H](O)[C@@H](O)[C@H](O)O[C@@H]2CO)[C@H](O)[C@@H](O)[C@H]1O [β-D-lactose] | ε | ε | − | + | − | − | + | − | − | − | 
15 | CC(=O)NC1C(O)CC(Oc2ccc([N+](=O)[O-])cc2)(C(=O)O)OC1C(O)C(O)CO [α-D-N-acetylneuramide] | − | − | − | − | − | − | − | − | − | − | 
16 | OC[C@H]1O[C@H](O)[C@H](O)[C@@H](O)[C@@H]1O [α-D-glucose] | ++ | ++ | ++ | ++ | ++ | ++ | ++ | ++ | − | ++ | 
17 | OC[C@H]1O[C@H](O)[C@H](O)[C@@H](O)[C@H]1O [α-D-galactose] | − | − | − | − | − | − | − | − | + | − | 
18 | O[C@@H]1[C@@H](O)[C@H](O)OC[C@H]1O [β-D-xylose] | − | ε | ε | + | ε | ε | ε | ε | − | ε | 
